{"source": "paper PMC4362760", "about": "“JAK2^V617F Drives Mcl-1 Expression and Sensitizes Hematologic Cell Lines to Dual Inhibition of JAK2 and Bcl-xL” (PLoS ONE, 2015)", "system": "K562 cells", "assay": "alamarBlue cell viability, JAKi-I/ABT-263 combination, 72 hr, K562", "format": "cell-based", "conditions": "K562, 72h, Jaki-1 0 uM", "procedure": "Transfection of siRNAs was performed using Lipofectamine RNAiMAX according to the manufacturer’s recommendations. […] Caspase-3 activity was determined using the Caspase-GLO 3/7 Assay (Promega) in parallel with the CellTiter-GLO viability assay (Promega). The data are expressed as Caspase-3/7 activity divided by cell viability.\nCaspase-3 activity was determined at each time point. Data are from duplicate samples and are representative of at least three independent experiments. (D-G) Cells were treated in combination as indicated, and cell viability was determined after 72 hr. Data are means of duplicate determinations, and are representative of at least three independent experiments. […] Drugs were added simultaneously, and cell viability was determined after 72 hr. The data were then analyzed using the drug-drug interaction model of Bliss additivity^16 to define dose combinations that were synergistic (values >15; red), antagonistic (values <-15; blue), or without effect (-15<values<15; gray). (I) Model of JAK2/Bcl-2 family inhibitor synergy. JAK2^V617F constitutively phosphorylates and activates STAT3/5, thus enforcing expression of the transcriptional target, Mcl-1. Mcl-1 collaborates with Bcl-XL to oppose apoptosis and support viability.\nSupplementary file pone.0114363.s006.xls: S6 Dataset Cells were treated in combination as indicated, and cell viability was determined using alamarBlue after 72 hr. Data are means of duplicate determinations, and are representative of at least three independent experiments. (XLS) Click here for additional data file."}
{"smiles": "CC1(C)CCC(c2ccc(Cl)cc2)=C(CN2CCN(c3ccc(C(=O)NS(=O)(=O)c4ccc(N[C@H](CCN5CCOCC5)CSc5ccccc5)c(S(=O)(=O)C(F)(F)F)c4)cc3)CC2)C1", "note": "[ABT-263]", "values": [{"measurement": "Viability (% Inhibiton)", "setting": "ABT-263 0.003 uM", "result": 0, "unit": "%"}, {"measurement": "Viability (% Inhibiton)", "setting": "ABT-263 0.01 uM", "result": 0, "unit": "%"}, {"measurement": "Viability (% Inhibiton)", "setting": "ABT-263 0.03 uM", "result": 0, "unit": "%"}, {"measurement": "Viability (% Inhibiton)", "setting": "ABT-263 0.1 uM", "result": 0, "unit": "%"}, {"measurement": "Viability (% Inhibiton)", "setting": "ABT-263 0.3 uM", "result": 10, "unit": "%"}, {"measurement": "Viability (% Inhibiton)", "setting": "ABT-263 1 uM", "result": 19, "unit": "%"}]}
